Measured values reported in the CheMixHub viscosity set.

Assay: xn = mol fraction of the nth substance listed

C=COCCCC + COC(=O)c1ccccc1
viscosity [mPa·s], 100 kPa
Conditions | x2 = 0.0898 | x2 = 0.1468 | x2 = 0.228 | x2 = 0.3145 | x2 = 0.4054 | x2 = 0.5056 | x2 = 0.6161 | x2 = 0.7316 | x2 = 0.8597
303.15 K | 0.437 | 0.497 | 0.571 | 0.657 | 0.761 | 0.891 | 1.038 | 1.205 | 1.422
308.15 K | 0.421 | 0.478 | 0.546 | – | – | – | 0.974 | 1.124 | 1.319
313.15 K | 0.4 | 0.452 | 0.515 | 0.585 | 0.671 | 0.778 | 0.897 | 1.034 | 1.205

C1CCC2CCCCC2C1 (stereo unspecified) + COC(C)(C)C
303.15 K, 101 kPa
Conditions | viscosity [mPa·s]
x2 = 0.1134 | 1.739
x2 = 0.184 | 1.547
x2 = 0.2577 | 1.367
x2 = 0.3906 | 1.089
x2 = 0.4774 | 0.935
x2 = 0.5234 | 0.863
x2 = 0.6441 | 0.694
x2 = 0.7771 | 0.543
x2 = 0.8937 | 0.431

C=CC(C)(O)CCC=C(C)C (stereo unspecified) + COC(C)(C)C
298.15 K, 101.33 kPa
Conditions | viscosity [mPa·s]
x2 = 0.0756 | 3.692
x2 = 0.1208 | 3.314
x2 = 0.1819 | 2.856
x2 = 0.3063 | 2.093
x2 = 0.3763 | 1.761
x2 = 0.5129 | 1.25
x2 = 0.5989 | 0.9982
x2 = 0.7222 | 0.7171
x2 = 0.8148 | 0.5569
x2 = 0.9106 | 0.4273
x2 = 0.9692 | 0.3605

O=[N+]([O-])c1ccccc1 + COC(C)(C)C
viscosity [mPa·s], 101.33 kPa
Conditions | x2 = 0.0921 | x2 = 0.1852 | x2 = 0.2942 | x2 = 0.3906 | x2 = 0.4845 | x2 = 0.695 | x2 = 0.7094 | x2 = 0.8055 | x2 = 0.9053
293.15 K | 1.745 | 1.535 | 1.345 | 1.096 | 1.011 | 0.7813 | 0.659 | 0.5509 | 0.4676
298.15 K | 1.625 | 1.402 | 1.203 | 0.9995 | 0.8725 | – | 0.6043 | 0.507 | 0.4335

O=[N+]([O-])c1ccccc1 + COC(C)=O
viscosity [mPa·s], 101 kPa
Conditions | 298.15 K | 308.15 K
x2 = 0.0418 | 1.689 | 1.459
x2 = 0.1491 | 1.449 | 1.261
x2 = 0.2508 | 1.25 | 1.095
x2 = 0.3515 | 1.076 | 0.949
x2 = 0.4403 | 0.941 | 0.834
x2 = 0.4882 | 0.875 | 0.777
x2 = 0.5492 | 0.796 | 0.71
x2 = 0.649 | 0.681 | 0.611
x2 = 0.7499 | 0.58 | 0.523
x2 = 0.8513 | 0.492 | 0.446
x2 = 0.9379 | 0.426 | 0.388

ClC(Cl)=C(Cl)Cl + COCCO
viscosity [mPa·s], 101.33 kPa
Conditions | x1 = 0.1062 | x1 = 0.2046 | x1 = 0.3091 | x1 = 0.4453 | x1 = 0.5214 | x1 = 0.6184 | x1 = 0.7146 | x1 = 0.8062 | x1 = 0.9015
303.15 K | 1.365 | 1.273 | 1.178 | 1.066 | 1.009 | 0.943 | 0.89 | 0.846 | 0.808
313.15 K | 1.111 | 1.049 | 0.985 | 0.907 | 0.866 | 0.819 | 0.778 | 0.747 | 0.727

O=[N+]([O-])c1ccccc1 + COCCO
Conditions | viscosity [mPa·s]
298.15 K, 101 kPa, x1 = 0.0511 | 1.561
298.15 K, 101 kPa, x1 = 0.101 | 1.58
298.15 K, 101 kPa, x1 = 0.2028 | 1.624
298.15 K, 101 kPa, x1 = 0.3038 | 1.673
298.15 K, 101 kPa, x1 = 0.4004 | 1.72
298.15 K, 101 kPa, x1 = 0.4502 | 1.743
298.15 K, 101 kPa, x1 = 0.5003 | 1.764
298.15 K, 101 kPa, x1 = 0.5524 | 1.785
298.15 K, 101 kPa, x1 = 0.6001 | 1.801
298.15 K, 101 kPa, x1 = 0.6981 | 1.829
298.15 K, 101 kPa, x1 = 0.7856 | 1.847
298.15 K, 101 kPa, x1 = 0.8931 | 1.85
298.15 K, 101 kPa, x1 = 0.9407 | 1.839
303.15 K, 101.33 kPa, x2 = 0.132 | 1.553
303.15 K, 101.33 kPa, x2 = 0.2148 | 1.514
303.15 K, 101.33 kPa, x2 = 0.2725 | 1.49
303.15 K, 101.33 kPa, x2 = 0.3929 | 1.453
303.15 K, 101.33 kPa, x2 = 0.5243 | 1.428
303.15 K, 101.33 kPa, x2 = 0.5584 | 1.425
303.15 K, 101.33 kPa, x2 = 0.7423 | 1.409
303.15 K, 101.33 kPa, x2 = 0.8512 | 1.397
303.15 K, 101.33 kPa, x2 = 0.9147 | 1.391

CCCCCCCCCCCCCC + COc1ccccc1
viscosity [mPa·s], 101 kPa
Conditions | x1 = 0.1012 | x1 = 0.2027 | x1 = 0.3005 | x1 = 0.3936 | x1 = 0.4986 | x1 = 0.6001 | x1 = 0.6977 | x1 = 0.7959 | x1 = 0.8991
298.15 K | 0.996 | 1.035 | 1.105 | 1.241 | 1.311 | 1.38 | 1.45 | 1.521 | 1.697
303.15 K | 0.916 | 0.974 | 1.004 | 1.116 | 1.21 | 1.304 | 1.398 | 1.493 | 1.587
308.15 K | 0.855 | 0.907 | 0.932 | 1.028 | 1.089 | 1.149 | 1.209 | 1.27 | 1.331

ClC(Cl)=C(Cl)Cl + COc1ccccc1
303.15 K, 101.3 kPa
Conditions | viscosity [mPa·s]
x2 = 0.0193 | 0.793
x2 = 0.039 | 0.79
x2 = 0.0561 | 0.792
x2 = 0.1158 | 0.781
x2 = 0.189 | 0.776
x2 = 0.2303 | 0.778
x2 = 0.2742 | 0.783
x2 = 0.3317 | 0.787
x2 = 0.3643 | 0.79
x2 = 0.4286 | 0.801
x2 = 0.4726 | 0.812
x2 = 0.6096 | 0.831
x2 = 0.6829 | 0.848
x2 = 0.7292 | 0.856
x2 = 0.7745 | 0.862
x2 = 0.8665 | 0.878
x2 = 0.8991 | 0.885
x2 = 0.9485 | 0.899

O=[N+]([O-])c1ccccc1 + COc1ccccc1
Conditions | viscosity [mPa·s]
293.15 K, 101.33 kPa, x2 = 0.0982 | 1.864
293.15 K, 101.33 kPa, x2 = 0.1946 | 1.72
293.15 K, 101.33 kPa, x2 = 0.2868 | 1.597
293.15 K, 101.33 kPa, x2 = 0.3929 | 1.478
293.15 K, 101.33 kPa, x2 = 0.5767 | 1.407
293.15 K, 101.33 kPa, x2 = 0.6086 | 1.289
293.15 K, 101.33 kPa, x2 = 0.7073 | 1.23
293.15 K, 101.33 kPa, x2 = 0.8086 | 1.167
293.15 K, 101.33 kPa, x2 = 0.9081 | 1.117
298.15 K, 101 kPa, x2 = 0.1 | 1.556
298.15 K, 101 kPa, x2 = 0.2022 | 1.561
298.15 K, 101 kPa, x2 = 0.3039 | 1.454
298.15 K, 101 kPa, x2 = 0.3968 | 1.368
298.15 K, 101 kPa, x2 = 0.5018 | 1.281
298.15 K, 101 kPa, x2 = 0.6021 | 1.204
298.15 K, 101 kPa, x2 = 0.7032 | 1.146
298.15 K, 101 kPa, x2 = 0.8267 | 1.068
298.15 K, 101 kPa, x2 = 0.9043 | 1.045
298.15 K, 101.33 kPa, x2 = 0.0982 | 1.703
298.15 K, 101.33 kPa, x2 = 0.1946 | 1.613
298.15 K, 101.33 kPa, x2 = 0.2868 | 1.468
298.15 K, 101.33 kPa, x2 = 0.3929 | 1.371
298.15 K, 101.33 kPa, x2 = 0.5767 | 1.294
298.15 K, 101.33 kPa, x2 = 0.6086 | 1.201
298.15 K, 101.33 kPa, x2 = 0.7073 | 1.153
298.15 K, 101.33 kPa, x2 = 0.8086 | 1.074
298.15 K, 101.33 kPa, x2 = 0.9081 | 1.048
303.15 K, 101 kPa, x2 = 0.0972 | 1.555
303.15 K, 101 kPa, x2 = 0.1 | 1.43
303.15 K, 101 kPa, x2 = 0.1829 | 1.437
303.15 K, 101 kPa, x2 = 0.2022 | 1.443
303.15 K, 101 kPa, x2 = 0.2642 | 1.341
303.15 K, 101 kPa, x2 = 0.3039 | 1.339
303.15 K, 101 kPa, x2 = 0.3916 | 1.224
303.15 K, 101 kPa, x2 = 0.3968 | 1.263
303.15 K, 101 kPa, x2 = 0.4829 | 1.147
303.15 K, 101 kPa, x2 = 0.5018 | 1.186
303.15 K, 101 kPa, x2 = 0.583 | 1.08
303.15 K, 101 kPa, x2 = 0.6021 | 1.115
303.15 K, 101 kPa, x2 = 0.6854 | 1.022
303.15 K, 101 kPa, x2 = 0.7032 | 1.064
303.15 K, 101 kPa, x2 = 0.7963 | 0.981
303.15 K, 101 kPa, x2 = 0.8267 | 0.9924
303.15 K, 101 kPa, x2 = 0.8977 | 0.96
303.15 K, 101 kPa, x2 = 0.9043 | 0.9678
308.15 K, 101 kPa, x2 = 0.1 | 1.317
308.15 K, 101 kPa, x2 = 0.2022 | 1.326
308.15 K, 101 kPa, x2 = 0.3039 | 1.236
308.15 K, 101 kPa, x2 = 0.3968 | 1.165
308.15 K, 101 kPa, x2 = 0.5018 | 1.096
308.15 K, 101 kPa, x2 = 0.6021 | 1.031
308.15 K, 101 kPa, x2 = 0.7032 | 0.9838
308.15 K, 101 kPa, x2 = 0.8267 | 0.92
308.15 K, 101 kPa, x2 = 0.9043 | 0.8978
313.15 K, 101 kPa, x2 = 0.1 | 1.217
313.15 K, 101 kPa, x2 = 0.2022 | 1.224
313.15 K, 101 kPa, x2 = 0.3039 | 1.142
313.15 K, 101 kPa, x2 = 0.3968 | 1.078
313.15 K, 101 kPa, x2 = 0.5018 | 1.013
313.15 K, 101 kPa, x2 = 0.6021 | 0.9572
313.15 K, 101 kPa, x2 = 0.7032 | 0.9119
313.15 K, 101 kPa, x2 = 0.8267 | 0.8533
313.15 K, 101 kPa, x2 = 0.9043 | 0.8343
